In patent US9643993B2, “Crystalline polymorphic form of ulipristal acetate” (ASKA PHARMACEUTICAL CO., LTD., priority 2012, dated 2017):
Where two headings read alike, the source gives them in different places.

Tests used:
[1] = dog, in vivo, po, 25 mg/kg
Description: (§1) For each of ulipristal acetate samples obtained in Examples and Comparative Example, the absorption test was performed as follows. The ulipristal acetate was filled into a gelatin capsule shell (manufacturer: Qualicaps Co., Ltd., size: No. 00, lot: C0079A) to produce a capsule. The capsule was orally administered to 6 female dogs at a dose of 25 mg/kg (in terms of ulipristal acetate). The blood was collected 0.5, 1, 2, 4, 6, 24, and 48 hours after the oral administration. Then the sample was centrifuged to give a plasma. The concentration of the ulipristal acetate in the plasma was measured by a LC-MS/MS (liquid chromatography-tandem mass spectrometry) method, and the elimination half-life (T112), the time to the maximum plasma concentration (Tmax), the maximum plasma concentration (Cmax), the area under the plasma concentration-time curve (AUC), and the mean residence time (MRT) were calculated. The capsule was administered to each female dog twice at dosing intervals (washout period) of one week by crossover method.

[2] = Solubility in ethanol/water (10/90) mixed solvent at 37° C.; settings: ethanol/water (volume ratio)=10/90, 37° C., stirred 5 minutes, HPLC
Description: [Solubility] For each of ulipristal acetate samples obtained in Examples and Comparative Example, the solubility was determined as follows. The ulipristal acetate (40 mg) was added to 40 mL of a mixed solvent containing ethanol and water [ethanol/water (volume ratio)=10/90] having a temperature of 37° C. to prepare a test sample. The test sample was stirred by a magnetic stirrer for 5 minutes. Then a portion of the suspension was separated. The solid of the separated portion was filtered out, and the ulipristal acetate content of the residue was quantitatively determined using a high-performance liquid chromatography (column: ODS, column temperature: 40° C., eluate: 0.1% trifluoroacetic acid aqueous solution/acetonitrile mixture (volume ratio 3:2), rate of flow: 1.0 mL/minute, detection: UV 302 nm), and the solubility was calculated.

Absorption test in dog = settings: female dogs, oral capsule, 25 mg/kg
Description: as §1

| SMILES | AUC0-inf [1] | AUC0-t [1] | Cmax [1] | MRTinf [1] | MRTlast [1] | T1/2 [1] | Tmax [1] | Solubility [2] | AUC0-inf (Absorption test in dog; plasma, LC-MS/MS) | AUC0-t (Absorption test in dog; plasma, LC-MS/MS) | Cmax (Absorption test in dog; plasma, LC-MS/MS) | MRTinf (Absorption test in dog; plasma, LC-MS/MS) | MRTlast (Absorption test in dog; plasma, LC-MS/MS) | T1/2 (Absorption test in dog; plasma, LC-MS/MS) | Tmax (Absorption test in dog; plasma, LC-MS/MS) | Pharmacokinetics compared with Comparative Example (in words) (Absorption test in dog; summary of Table 5) |
| --- | --- | --- | --- | --- | --- | --- | --- | --- | --- | --- | --- | --- | --- | --- | --- | --- |
| CC(=O)O[C@]1(C(C)=O)CCC2C3CCC4=CC(=O)CCC4=C3[C@@H](c3ccc(N(C)C)cc3)C[C@@]21C (stereo partly drawn) [Comparative Example, 17alpha-acetoxy-11beta-(4-N,N-dimethylaminophenyl)-19-norpregna-4,9-diene-3,20-dione] | 9390.7 ng·h/mL | 8447.4 ng·h/mL | 1490.7 ng/mL | 16.6 h | 11.8 h | 14.9 h | 1.8 h |  |  |  |  |  |  |  |  |  |
| CC(=O)O[C@]1(C(C)=O)CCC2C3CCC4=CC(=O)CCC4=C3[C@@H](c3ccc(N(C)C)cc3)C[C@@]21C (stereo partly drawn) [Example 1, 17alpha-acetoxy-11beta-(4-N,N-dimethylaminophenyl)-19-norpregna-4,9-diene-3,20-dione] |  |  |  |  |  |  |  | 11.2 µg/mL | 18078.4 ng·h/mL | 12194.3 ng·h/mL | 2200.2 ng/mL | 37.7 h | 11.7 h | 37.3 h | 1.2 h | excellent pharmacokinetics |
